Measured values as given in US10556865B2, “Synergistic herbicidal composition containing certain pyridine or pyrimidine carboxylic acids and certain cereal and rice herbicides” (Dow AgroSciences, LLC, priority 2007, dated 2020).
Where “and” joins values, the source holds several entries; their conditions need not be identical. Equal entries are not always repeated.

Columns and labels:
Format in all cases: in vivo
[1] = test system: blackgrass (Alopecurus myosuroides L; ALOMY); experiment: Postemergence herbicidal activity of mixtures in cereal crops (greenhouse, visual injury 0-100 percent after 20-22 days); conditions: 2.5 g/ha
Procedure: (§1) Seeds of the desired test plant species were planted in Sun Gro MetroMix® 306 planting mixture, which typically has a pH of 6.0 to 6.8 and an organic matter content of about 30 percent, in plastic pots with a surface area of 103.2 square centimeters (cm^2). […] The plants were grown for 7-36 days in a greenhouse with an approximate 14 hour photoperiod which was maintained at about 18° C. during the day and 17° C. during the night. Nutrients and water were added on a regular basis and supplemental lighting was provided with overhead metal halide 1000-Watt lamps as necessary. The plants were employed for testing when they reached the second or third true leaf stage.
(§2) Treatments consisted of compound (as listed in Tables 1 through 64) and a second cereal herbicide alone and in combination. […] The concentrated stock solutions were diluted to 1.5 mg ai/mL with the addition of 2 volumes of an aqueous mixture containing acetone, water, isopropyl alcohol, DMSO, Agri-dex crop oil concentrate, and Triton® X-77 surfactant in a 64.7:26.0:6.7:2.0:0.7:0.01 v/v ratio. A dilution solution was prepared by mixing 1 volume of 97:3 v/v acetone/DMSO and 2 volumes of an aqueous mixture containing acetone, water, isopropyl alcohol, DMSO, Agri-dex crop oil concentrate, and Triton® X-77 surfactant in a 64.7:26.0:6.7:2.0:0.7:0.01 v/v ratio. Compound requirements are based upon a 12 mL application volume at a rate of 187 liters per hectare (L/ha). […] Formulated compounds were applied to the plant material with an overhead Mandel track sprayer equipped with 8002E nozzles calibrated to deliver 187 L/ha over an application area of 0.503 square meters (m^2) at a spray height of 18 inches […] above average plant canopy. Control plants were sprayed in the same manner with the solvent blank.
(§3) The treated plants and control plants were placed in a greenhouse as described above and watered by sub-irrigation to prevent wash-off of the test compounds. After 20-22 days, the condition of the test plants as compared with that of the control plants was determined visually and scored on a scale of 0 to 100 percent where 0 corresponds to no injury and 100 corresponds to complete kill.
(§4) Colby's equation was used to determine the herbicidal effects expected from the mixtures (Colby, S. R. 1967. Calculation of the synergistic and antagonistic response of herbicide combinations. Weeds 15:20-22.).
(§5) The following equation was used to calculate the expected activity of mixtures containing two active ingredients, A and B: Expected=A+B−(A×B/100)

[2] = test system: wild oats (Avena fatua L; AVEFA); experiment: Postemergence herbicidal activity of mixtures in cereal crops (greenhouse, visual injury); conditions: 2.5 g/ha, Table 14
Procedure: as §1, §2, §3, §4, §5

[3] = test system: windgrass (Apera spica-venti L; APESV); experiment: as above; conditions: Apera spica-venti, post-emergence, 2.5 g/ha, Table 14; read-out: APESV Ob
Procedure: as §1, §2, §3, §4, §5

[4] = test system: Italian ryegrass (Lolium multiflorum L; LOLMU); experiment: as above; conditions: 2.5 g/ha, Table 14
Summary of the method: (§6)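 Injury ratings (0–100%) taken 20–22 days post-spray versus solvent-blank controls. Treatment: 187 L/ha track spray, 2nd–3rd leaf plants, Compound A/B with second cereal herbicide.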

[5] = test system: green foxtail (Setaria viridis L; SETVI); experiment: as above; conditions: 2.5 g/ha, Table 7
Summary of the method: as §6

[6] = test system: Canada thistle (Cirsium arvense L; CIRAR); experiment: as above; conditions: 3.75 g/ha
Summary of the method: (§7)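 Weeds grown in greenhouse (~14 h photoperiod, ~18/17 °C day/night) to second–third true leaf stage, sprayed postemergence with compound and second cereal herbicide alone or combined; solvent-blank controls. Injury scored visually after 20-22 days, 0–100% (complete kill); expected mixture activity = A+B−(A×B/100).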

[7] = test system: Polygonum pensylvanicum L. (POLPY); experiment: Postemergence herbicidal mixtures for weed control in direct seeded rice (greenhouse, visual % injury); conditions: for % Injury Ob: POLPY
[8] = test system: Ischaemum rugosum SALISB. (ISCRU); experiment: as above; conditions: ISCRU
[9] = test system: Brachiaria platyphylla (BRISEB.) NASH (BRAPP); experiment: as above
[10] = test system: Cyperus esculentus L. (CYPES); experiment: as above; conditions: CYPES
Cyperus iria L. (CYPIR) = experiment: as above; conditions: CYPIR
[11] = test system: Scirpus maritimus L. (SCPMA); experiment: as above; conditions: for % Injury Ob: SCPMA
[12] = test system: Fimbristylis miliacea (L.) VAHL (FIMMI); experiment: as above; conditions: for % Injury Ob: FIMMI
[13] = test system: Fimbristylis miliacea (L.) VAHL (FIMMI); experiment: Herbicidal mixtures for weed control in transplanted paddy rice (in-water application, visual % injury); conditions: 35 g/ha alone
Procedure: (§8) Weed seeds or nutlets of the desired test plant species were planted in puddled soil (mud) prepared by mixing a non-sterilized mineral soil (28 percent silt, 18 percent clay, and 54 percent sand, with a pH of about 7.3 to 7.8 and an organic matter content of about 1.0 percent) and water at a ratio of 100 kilograms (kg) of soil to 19 L of water. The prepared mud was dispensed in 250 mL aliquots into 480 mL non-perforated plastic pots with a surface area of 91.6 square centimeters leaving a headspace of 3 centimeters in each pot. Rice seeds were planted in Sun Gro MetroMix® 306 planting mixture, which typically has a pH of 6.0 to 6.8 and an organic matter content of about 30 percent, in plastic plug trays. Seedlings at the second or third leaf stage of growth were transplanted into 650 mL of mud contained in 960 mL non-perforated plastic pots with a surface area of 91.6 cm^2 4 days prior to herbicide application. The paddy was created by filling the 3 centimeter headspace of the pots with water. […] The plants were grown for 4-14 days in a greenhouse with an approximate 14 hr photoperiod which was maintained at about 29° C. during the day and 26° C. during the night. Nutrients were added as Osmocote (17:6:10, N:P:K+minor nutrients) at 2 g per cup. Water was added on a regular basis to maintain the paddy flood, and supplemental lighting was provided with overhead metal halide 1000-Watt lamps as necessary. The plants were employed for testing when they reached the second or third true leaf stage.
(§9) Treatments consisted of esters or salts of compound A, compound C, or compound D and various herbicidal components alone and in combination. For technical grade compounds, a weighed amount, determined by the highest rate to be tested, was placed in an individual 120 mL glass vial and was dissolved in 20 mL of acetone to obtain concentrated stock solutions. […] The concentrated stock solutions obtained were diluted with 20 mL of an aqueous mixture containing 2.5% Agri-dex crop oil concentrate (v/v). For formulated compounds, a measured amount, determined by the highest rate to be tested, was placed in an individual 120 mL glass vial and was dissolved in 20 mL of 2.5% (v/v) Agri-dex crop oil concentrate to obtain concentrated stock solutions. The concentrated stock solutions obtained were diluted with 20 mL of acetone. Applications were made by injecting an appropriate amount of the stock solution into the aqueous layer of the paddy. Control plants were treated in the same manner with the solvent blank. All treated plant material received the same concentration of acetone and crop oil concentrate.
(§10) Forms of compounds A, C, and D were applied on an acid equivalent basis. Other herbicidal components were applied on an active ingredient basis and included acetolactate synthase (ALS)-inhibiting herbicides penoxsulam (triazolopyrimidine chemical class) applied as Grasp SC, […] (sulfonylurea chemical class) applied as Sirius G, and bensulfuron-methyl (sulfonylurea chemical class) applied as Londax; acetyl CoA carboxylase (ACCase) inhibiting herbicides cyhalofop-butyl applied as Clincher G and fenoxaprop-p-ethyl applied as Ricestar HT; auxinic herbicide quinclorac applied as Facet 75 DF; phytoene desaturase inhibiting herbicide norflurazon; and p-hydroxyphenylpyruvate dioxygenase (HPPD) inhibiting herbicide sulcotrione applied as Mikado.
(§11) The treated plants and control plants were placed in a greenhouse as described above and water was added as needed to maintain a paddy flood. After 3 weeks the condition of the test plants as compared with that of the untreated plants was determined visually and scored on a scale of 0 to 100 percent where 0 corresponds to no injury and 100 corresponds to complete kill.

Scirpus species (SCPSS) = experiment: as above; conditions: SCPJU; 35 g/ha alone
Procedure: as §8, §9, §10, §11

Cyperus species (CYPSS) = experiment: as above; conditions: CYPES = Cyperus esculentus
Procedure: Weed seeds or nutlets of the desired test plant species were planted in puddled soil (mud) prepared by mixing a non-sterilized mineral soil (28 percent silt, 18 percent clay, and 54 percent sand, with a pH of about 7.3 to 7.8 and an organic matter content of about 1.0 percent) and water at a ratio of 100 kilograms (kg) of soil to 19 L of water. The prepared mud was dispensed in 250 mL aliquots into 480 mL non-perforated plastic pots with a surface area of 91.6 square centimeters leaving a headspace of 3 centimeters in each pot. Rice seeds were planted in Sun Gro MetroMix® 306 planting mixture, which typically has a pH of 6.0 to 6.8 and an organic matter content of about 30 percent, in plastic plug trays. Seedlings at the second or third leaf stage of growth were transplanted into 650 mL of mud contained in 960 mL non-perforated plastic pots with a surface area of 91.6 cm^2 4 days prior to herbicide application. The paddy was created by filling the 3 centimeter headspace of the pots with water. When required to ensure good germination and healthy plants, a fungicide treatment and/or other chemical or physical treatment was applied. The plants were grown for 4-14 days in a greenhouse with an approximate 14 hr photoperiod which was maintained at about 29° C. during the day and 26° C. during the night. Nutrients were added as Osmocote (17:6:10, N:P:K+minor nutrients) at 2 g per cup. Water was added on a regular basis to maintain the paddy flood, and supplemental lighting was provided with overhead metal halide 1000-Watt lamps as necessary. The plants were employed for testing when they reached the second or third true leaf stage.
as §9, §10, §11

[14] = test system: chickweed (Stellaria media L; STEME); experiment: Postemergence herbicidal activity of mixtures in cereal crops (greenhouse, visual injury); conditions: 70 g/ha alone
Summary of the method: as §6

[15] = test system: lady's-thumb (Polygonum persicaria L; POLPE); experiment: as above; conditions: 70 g/ha alone
Summary of the method: as §6

[16] = test system: wild buckwheat (Polygonum convolvulus L; POLCO); experiment: as above; conditions: 70 g/ha alone
Summary of the method: as §6

[17] = test system: bird's-eye speedwell (Veronica persica L; VERPE); experiment: as above; conditions: 70 g/ha alone
Summary of the method: as §7

[18] = test system: wild pansy (Viola tricolor L; VIOTR); experiment: as above; conditions: 70 g/ha alone
Summary of the method: as §7

SMILES: COc1nc(C)nc(NC(=O)NS(=O)(=O)c2cc(I)ccc2C(=O)O)n1 [Iodosulfuron, 4-iodo-2-[[[[(4-methoxy-6-methyl-1,3,5-triazin-2-yl)amino]carbonyl]amino]sulfonyl]benzoic acid, reference compound]
- ALOMY Ob ([1]; Table 7): 50%
- ALOMY Ob ([1]; Table 14): 50%
- AVEFA Ob [2]: 35%
- pest or weed control at 2.5 g/ha [3]: 68%
- LOLMU Ob [4]: 53%
- SETVI Ob [5]: 0%
- CIRAR Ob [6]: 50%

SMILES: C=CCOC(=O)c1nc(-c2ccc(Cl)c(OC)c2F)cc(N)c1Cl [Compound A Allyl]
- % Injury Ob ([7]; 17.5 g/ha alone): 90%
- % Injury Ob ([7]; 35 g/ha alone): 70%
- % Injury POLPY Ob ([7]; alone 17.5 g/ha): 70%
- % Injury Ob ([8]; 8.75 g/ha alone): 10%
- % Injury Ob ([8]; 17.5 g/ha alone): 40%
- % Injury Ob ([9]; 4.38 g/ha alone): 80%
- % Injury Ob ([9]; 8.75 g/ha alone): 60% and 80% and 100%
- % Injury Ob ([9]; 17.5 g/ha alone): 99%
- % Injury Ob ([10]; 17.5 g/ha alone): 50%
- % Injury Ob ([10]; 35 g/ha alone): 95%
- % Injury Ob (Cyperus iria L. (CYPIR); 17.5 g/ha alone): 35%
- % Injury Ob (Cyperus iria L. (CYPIR); 35 g/ha alone): 85%
- % Injury Ob ([11]; 17.5 g/ha alone): 10%
- % Injury Ob ([11]; 35 g/ha alone): 20%
- % Injury SCPMA Ob ([11]; alone 17.5 g/ha): 0%
- % Injury Ob ([12]; 8.75 g/ha alone): 0%
- % Injury Ob ([12]; 35 g/ha alone): 60%
- % Injury FIMMI Ob ([12]; alone 17.5 g/ha): 40%

SMILES: CCCCC(CC)COC(=O)COc1ccc(Cl)cc1C (stereo not drawn) [MCPA EHE]
- % Injury Ob ([8]; 70 g/ha alone): 0%
- % Injury Ob ([8]; 140 g/ha alone): 0%
- % Injury Ob ([9]; 70 g/ha alone): 0%
- % Injury Ob ([9]; 140 g/ha alone): 0%
- % Injury Ob ([12]; 70 g/ha alone): 0%
- % Injury Ob ([12]; 140 g/ha alone): 0%

SMILES: CCOC(=O)[C@@H](C)Oc1ccc(Oc2nc3ccc(Cl)cc3o2)cc1 [Fenoxaprop-p-ethyl]
- % Injury POLPY Ob ([7]; alone 35 g/ha): 0%
- % Injury SCPMA Ob ([11]; alone 35 g/ha): 0%
- % Injury FIMMI Ob ([12]; alone 35 g/ha): 0%
- % Injury Ob [13]: 0%
- % Injury Ob (Scirpus species (SCPSS)): 0%

SMILES: CNc1cnn(-c2cccc(C(F)(F)F)c2)c(=O)c1Cl [Norflurazon]
- % Injury Ob ([9]; 70 g/ha alone): 0%
- % Injury Ob ([10]; 560 g/ha alone): 0%
- % Injury Ob (Cyperus iria L. (CYPIR); 560 g/ha alone): 0%
- % Injury Ob ([11]; 560 g/ha alone): 60%
- % Injury Ob ([12]; 560 g/ha alone): 0%
- % Injury CYPES Ob (Cyperus species (CYPSS); Norflurazon 70 g/ha alone (Compound A Methyl half)): 0%
- % Injury CYPES Ob (Cyperus species (CYPSS); Norflurazon 70 g/ha alone (Compound A TEA half)): 0%

SMILES: Cc1cc(Cl)ccc1OCC(=O)O [MCPA]
- STEME Ob [14]: 7%
- POLPE Ob [15]: 23%
- POLCO Ob [16]: 7%
- VERPE Ob [17]: 10%
- VIOTR Ob [18]: 17%
